inhibition, Activity and IC50 data for 8 compounds are collected here from ChEMBL document CHEMBL2016457, “Discovery of potent and orally bioavailable 17β-hydroxysteroid dehydrogenase type 3 inhibitors” (Bioorg Med Chem, 2012).

Molecules are shown by their SMILES. Calls of active or inactive are those of the source. The rule behind the calls is not given here.

For assay [1], the target named is T1, 17-beta-hydroxysteroid dehydrogenase type 2 (Homo sapiens) (UniProt P37059).
T1 sequence (whole entry): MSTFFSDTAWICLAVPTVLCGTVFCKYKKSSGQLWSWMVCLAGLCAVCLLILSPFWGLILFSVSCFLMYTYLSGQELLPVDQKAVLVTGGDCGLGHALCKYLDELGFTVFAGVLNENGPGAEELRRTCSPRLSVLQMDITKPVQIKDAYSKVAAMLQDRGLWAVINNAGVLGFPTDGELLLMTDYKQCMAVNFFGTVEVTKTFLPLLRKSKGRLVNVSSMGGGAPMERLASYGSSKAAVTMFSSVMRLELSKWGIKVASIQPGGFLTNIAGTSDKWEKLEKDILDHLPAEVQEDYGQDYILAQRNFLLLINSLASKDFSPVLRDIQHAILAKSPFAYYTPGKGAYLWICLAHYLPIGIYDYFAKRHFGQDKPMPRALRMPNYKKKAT
As to the kind of experiment: Inhibition of human recombinant 17-beta-HSD2 expressed in human HeLa cells using estradiol as substrate preincubated for 30 mins prior substrate addition measured after 120 mins by spectrophotometry. The assay is classed as cell-based.

Assay [2] addresses T2, Androgen receptor (Homo sapiens) (UniProt P10275).
T2 sequence (whole entry): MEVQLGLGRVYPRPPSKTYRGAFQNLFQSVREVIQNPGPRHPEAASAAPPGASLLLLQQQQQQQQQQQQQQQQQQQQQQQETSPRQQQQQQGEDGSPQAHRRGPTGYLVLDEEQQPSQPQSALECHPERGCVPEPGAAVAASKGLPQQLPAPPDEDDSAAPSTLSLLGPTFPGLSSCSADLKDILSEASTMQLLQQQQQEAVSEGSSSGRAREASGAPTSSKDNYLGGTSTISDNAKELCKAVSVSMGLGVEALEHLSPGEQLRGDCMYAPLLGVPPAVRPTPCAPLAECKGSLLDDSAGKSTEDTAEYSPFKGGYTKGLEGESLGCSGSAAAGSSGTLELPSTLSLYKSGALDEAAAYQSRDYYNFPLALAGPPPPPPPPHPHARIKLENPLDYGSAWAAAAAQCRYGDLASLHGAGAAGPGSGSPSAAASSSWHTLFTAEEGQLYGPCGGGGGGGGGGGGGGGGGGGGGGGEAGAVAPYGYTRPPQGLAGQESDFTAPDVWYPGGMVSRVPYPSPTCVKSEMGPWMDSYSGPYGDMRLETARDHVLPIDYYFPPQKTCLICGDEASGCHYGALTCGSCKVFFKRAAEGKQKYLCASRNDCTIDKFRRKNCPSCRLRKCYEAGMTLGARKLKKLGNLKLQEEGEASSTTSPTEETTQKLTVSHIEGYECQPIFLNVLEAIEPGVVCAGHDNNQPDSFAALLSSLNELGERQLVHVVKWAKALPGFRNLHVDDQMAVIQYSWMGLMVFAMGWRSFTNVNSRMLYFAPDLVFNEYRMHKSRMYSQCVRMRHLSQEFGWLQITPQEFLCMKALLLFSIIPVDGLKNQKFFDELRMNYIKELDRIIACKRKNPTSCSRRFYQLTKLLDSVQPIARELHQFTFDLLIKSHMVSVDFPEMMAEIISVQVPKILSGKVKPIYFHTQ
The assay can be described thus: Antagonist activity at human androgen receptor expressed in human HeLa cells assessed as inhibition of DHT-induced response after 40 hrs by luciferase/beta-galactosidase-based reporter gene assay. The class given is functional, cell-based. A general note: Reporter assays use an easily measured gene product as a stand-in for the process of interest.

For assay [3], the target named is T3, Estrogen receptor (Homo sapiens) (UniProt P03372).
T3 sequence (whole entry): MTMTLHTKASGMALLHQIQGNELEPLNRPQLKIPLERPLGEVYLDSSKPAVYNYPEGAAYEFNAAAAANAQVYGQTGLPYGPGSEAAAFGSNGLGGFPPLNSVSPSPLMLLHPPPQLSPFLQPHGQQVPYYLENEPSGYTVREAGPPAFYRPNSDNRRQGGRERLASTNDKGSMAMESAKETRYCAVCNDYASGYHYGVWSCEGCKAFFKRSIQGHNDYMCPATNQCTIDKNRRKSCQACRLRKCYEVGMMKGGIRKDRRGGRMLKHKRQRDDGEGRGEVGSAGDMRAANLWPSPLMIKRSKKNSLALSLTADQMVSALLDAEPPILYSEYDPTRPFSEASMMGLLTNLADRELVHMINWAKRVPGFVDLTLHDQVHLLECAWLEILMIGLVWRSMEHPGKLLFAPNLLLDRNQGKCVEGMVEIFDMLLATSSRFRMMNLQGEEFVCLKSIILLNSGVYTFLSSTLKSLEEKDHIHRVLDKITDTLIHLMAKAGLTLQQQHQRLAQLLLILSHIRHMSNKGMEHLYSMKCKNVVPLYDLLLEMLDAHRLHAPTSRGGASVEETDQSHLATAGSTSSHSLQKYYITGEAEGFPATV
The assay can be described thus: Antagonist activity at human ERalpha receptor expressed in human HeLa cells assessed as inhibition of DHT-induced response after 40 hrs by luciferase/beta-galactosidase-based reporter gene assay. The assay is classed as functional, cell-based.

For assay [4], the target named is T4, Glucocorticoid receptor (Homo sapiens) (UniProt P04150).
T4 sequence (whole entry): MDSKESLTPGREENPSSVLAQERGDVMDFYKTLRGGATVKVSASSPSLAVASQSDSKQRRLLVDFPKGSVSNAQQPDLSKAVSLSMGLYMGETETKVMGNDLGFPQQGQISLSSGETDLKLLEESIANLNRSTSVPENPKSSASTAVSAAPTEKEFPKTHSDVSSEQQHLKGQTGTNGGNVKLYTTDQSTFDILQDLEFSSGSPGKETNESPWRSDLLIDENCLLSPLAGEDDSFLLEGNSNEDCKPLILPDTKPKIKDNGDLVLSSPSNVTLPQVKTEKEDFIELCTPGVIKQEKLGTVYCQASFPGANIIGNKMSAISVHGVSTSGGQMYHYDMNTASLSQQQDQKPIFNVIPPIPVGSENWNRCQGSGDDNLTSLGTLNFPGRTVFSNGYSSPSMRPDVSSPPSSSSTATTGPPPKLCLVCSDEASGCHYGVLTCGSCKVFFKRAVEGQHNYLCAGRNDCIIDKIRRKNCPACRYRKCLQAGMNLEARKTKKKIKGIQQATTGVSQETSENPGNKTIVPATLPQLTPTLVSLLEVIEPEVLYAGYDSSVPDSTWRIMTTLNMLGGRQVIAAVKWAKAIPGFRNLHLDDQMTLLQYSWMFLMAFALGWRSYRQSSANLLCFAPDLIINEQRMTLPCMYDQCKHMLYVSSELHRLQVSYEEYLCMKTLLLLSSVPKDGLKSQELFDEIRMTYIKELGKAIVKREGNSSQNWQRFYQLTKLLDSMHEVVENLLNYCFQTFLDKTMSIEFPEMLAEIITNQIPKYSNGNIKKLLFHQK
As to the kind of experiment: Agonist activity at human Glucocorticoid receptor expressed in human HeLa cells assessed as DHT-induced response after 40 hrs by luciferase/beta-galactosidase-based reporter gene assay. The assay is classed as functional, cell-based.

Assay [5] deals with T3, Estrogen receptor (Homo sapiens). The assay can be described thus: Agonist activity at human Estrogen receptor ERalpha expressed in human HeLa cells assessed as DHT-induced response after 40 hrs by luciferase/beta-galactosidase-based reporter gene assay. The class given is functional, cell-based.
The target of assay [6] is T5, 17-beta-hydroxysteroid dehydrogenase type 1 (Homo sapiens) (UniProt P14061).
T5 sequence (whole entry): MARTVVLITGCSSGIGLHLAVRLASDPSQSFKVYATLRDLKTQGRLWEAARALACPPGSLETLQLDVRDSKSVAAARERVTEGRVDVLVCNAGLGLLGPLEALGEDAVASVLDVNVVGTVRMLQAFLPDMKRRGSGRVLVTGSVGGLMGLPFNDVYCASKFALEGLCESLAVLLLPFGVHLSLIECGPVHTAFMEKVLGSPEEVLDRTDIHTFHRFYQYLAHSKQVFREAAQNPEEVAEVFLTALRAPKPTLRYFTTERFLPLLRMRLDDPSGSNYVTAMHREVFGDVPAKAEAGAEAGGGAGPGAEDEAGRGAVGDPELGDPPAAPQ
The assay can be described thus: Inhibition of human recombinant 17-beta-HSD1 expressed in human HeLa cells using estrone as substrate preincubated for 30 mins prior substrate addition measured after 120 mins by spectrophotometry. The assay is classed as cell-based.

Assay [7] deals with T2, Androgen receptor (Homo sapiens). The assay can be described thus: Agonist activity at human androgen receptor expressed in human HeLa cells assessed as DHT-induced response after 40 hrs by luciferase/beta-galactosidase-based reporter gene assay. The class given is functional, cell-based.
For assay [8], the target named is T6, 17-beta-hydroxysteroid dehydrogenase type 3 (Homo sapiens, UniProt P37058).
T6 sequence (P37058 whole entry): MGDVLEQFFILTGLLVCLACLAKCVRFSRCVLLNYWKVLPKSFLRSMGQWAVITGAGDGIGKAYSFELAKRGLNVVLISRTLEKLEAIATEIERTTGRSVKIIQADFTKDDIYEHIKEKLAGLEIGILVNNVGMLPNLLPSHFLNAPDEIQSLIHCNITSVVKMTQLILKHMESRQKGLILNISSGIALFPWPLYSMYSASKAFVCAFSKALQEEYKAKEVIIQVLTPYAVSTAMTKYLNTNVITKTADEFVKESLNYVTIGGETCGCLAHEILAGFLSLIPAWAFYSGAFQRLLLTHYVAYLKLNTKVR
Description: Inhibition of human recombinant 17-beta-HSD3 expressed in human HeLa cells using androstenedione as substrate preincubated for 30 mins prior substrate addition measured after 120 mins by spectrophotometry

Assay [9] deals with T4, Glucocorticoid receptor (Homo sapiens). The assay can be described thus: Antagonist activity at human GR receptor expressed in human HeLa cells assessed as inhibition of DHT-induced response after 40 hrs by luciferase/beta-galactosidase-based reporter gene assay. The assay is classed as functional, cell-based.

What is called IC50 is the midpoint of a concentration-inhibition curve. Read a high IC50 as lower potency. With `CN(C)C(=O)c1ccc(N2C(=O)O/C(=C\c3ccc(O)c(Br)c3)C2=O)cc1`, the inhibition result in assay [1] and in assay [6] was “inactive” in each case. The outcome in [2], in assay [3], in [4], in assay [5], in [7] and in assay [9] was inactive. The same compound came in with an IC50 in [8] of 65 nM.
For the compound `COc1ccc(N2C(=O)/C(=C/c3ccc(O)c(Br)n3)OC2=S)cc1`, the inhibition entry in [1] and in [6] was “inactive” in each case. In addition, the result in assay [2], in assay [3], in assay [4], in assay [5], in [7] and in assay [9] was inactive. For the same compound, the midpoint of inhibition in assay [8], the IC50, lay at 42 nM.
Take `COc1cccc(N2C(=O)/C(=C/c3ccc(O)c(Br)c3)OC2=S)c1`: the inhibition result in [1] and in [6] was “inactive” in each case. The outcome in assay [2], in assay [3], in assay [4], in assay [5], in assay [7] and in assay [9] was inactive. Moreover, inhibition in [8] was half-maximal at 7 nM (IC50).
`N#Cc1ccc(N2C(=O)/C(=C/c3ccc(O)c(Br)c3)OC2=S)cc1`: the inhibition entry in [1] and in [6] was “inactive” in each case. The result in assay [2], in [3], in assay [4], in [5], in assay [7] and in assay [9] was inactive. In assay [8], this compound came in with a 50% inhibitory concentration (IC50) of 19 nM.
Take `COc1ccc(N2C(=O)/C(=C/c3cc(F)c(O)c(F)c3)OC2=S)cc1`: the inhibition result in [1] and in assay [6] was “inactive” each time. Also, the result in assay [2], in assay [3], in [4], in [5], in [7] and in [9] was inactive. In addition, in [8], the half-maximal inhibitory concentration (IC50) is 5 nM.
As for `O=C1/C(=C/c2ccc(O)c(Br)c2)OC(=S)N1c1ccc(Cl)cc1`, the inhibition entry in [1] and in assay [6] was “inactive” each time. Also, the outcome in assay [2], in assay [3], in assay [4], in assay [5], in assay [7] and in assay [9] was inactive. Besides, half-maximal inhibition in assay [8] (IC50) required 6 nM.
Take `COc1ccc(N2C(=O)/C(=C/c3ccc(O)cn3)OC2=S)cc1`: the inhibition entry in assay [1] and in assay [6] was “inactive” each time. In addition, the outcome in assay [2], in [3], in [4], in assay [5], in [7] and in assay [9] was inactive. Inhibition in assay [8] was half-maximal at 90 nM (IC50).
For the compound `COc1ccc(N2C(=O)/C(=C/c3cc(F)c(O)c(Cl)c3)OC2=S)cc1`, the inhibition result in assay [1] and in assay [6] was “inactive” in each case. In addition, the result in assay [2], in assay [3], in assay [4], in assay [5], in [7] and in assay [9] was inactive. This compound came in with an IC50 in [8] of 1 nM.
